Test results as given in PubChem BioAssay (NCI).
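Tested at 5 concentrations; 48 h exposure; 96-well plates; endpoints linearly interpolated, else capped at highest concentration. At the GI50, growth is halved. TGI: concentration producing complete growth inhibition.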

Key:
Test in all cases: NCI tumour cell line growth inhibition, 48 h; in the data active = GI50 below about 0.43 µM; inactive = the rest
COLO 205 colon = tested on: COLO 205 colon
SNB-19 CNS = tested on: SNB-19 CNS
HS 578T breast = tested on: HS 578T breast
IGROV1 ovarian = tested on: IGROV1 ovarian
MALME-3M melanoma = tested on: MALME-3M melanoma
SF-295 CNS = tested on: SF-295 CNS
LOX IMVI melanoma = tested on: LOX IMVI melanoma
UO-31 renal = tested on: UO-31 renal
HL-60(TB) leukemia = tested on: HL-60(TB) leukemia
SN12C renal = tested on: SN12C renal
NCI-H23 lung = tested on: NCI-H23 lung
TK-10 renal = tested on: TK-10 renal
OVCAR-4 ovarian = tested on: OVCAR-4 ovarian
SK-OV-3 ovarian = tested on: SK-OV-3 ovarian
SK-MEL-28 melanoma = tested on: SK-MEL-28 melanoma
NCI/ADR-RES ovarian = tested on: NCI/ADR-RES ovarian
SW-620 colon = tested on: SW-620 colon
HCT-116 colon = tested on: HCT-116 colon
BT-549 breast = tested on: BT-549 breast
EKVX NSCLC = tested on: EKVX NSCLC
A498 renal = tested on: A498 renal
RPMI-8226 leukemia = tested on: RPMI-8226 leukemia
KM12 colon = tested on: KM12 colon
SK-MEL-5 melanoma = tested on: SK-MEL-5 melanoma
SF-268 CNS = tested on: SF-268 CNS
UACC-62 melanoma = tested on: UACC-62 melanoma
CAKI-1 renal = tested on: CAKI-1 renal
OVCAR-3 ovarian = tested on: OVCAR-3 ovarian
M14 melanoma = tested on: M14 melanoma
RXF 393 renal = tested on: RXF 393 renal
MOLT-4 leukemia = tested on: MOLT-4 leukemia
HOP-62 NSCLC = tested on: HOP-62 NSCLC
CCRF-CEM leukemia = tested on: CCRF-CEM leukemia
OVCAR-8 ovarian = tested on: OVCAR-8 ovarian
DU-145 prostate = tested on: DU-145 prostate
U251 CNS = tested on: U251 CNS
T-47D breast = tested on: T-47D breast
786-0 renal = tested on: 786-0 renal
MDA-N = tested on: MDA-N
OVCAR-5 ovarian = tested on: OVCAR-5 ovarian
HT29 colon = tested on: HT29 colon
NCI-H522 lung = tested on: NCI-H522 lung
SNB-75 CNS = tested on: SNB-75 CNS
MCF7 breast = tested on: MCF7 breast
SK-MEL-2 melanoma = tested on: SK-MEL-2 melanoma
A549 NSCLC = tested on: A549 NSCLC
MDA-MB-435 = tested on: MDA-MB-435
MDA-MB-231 breast = tested on: MDA-MB-231 breast
UACC-257 melanoma = tested on: UACC-257 melanoma
HOP-92 NSCLC = tested on: HOP-92 NSCLC
PC-3 prostate = tested on: PC-3 prostate
ACHN renal = tested on: ACHN renal
K-562 leukemia = tested on: K-562 leukemia
NCI-H226 lung = tested on: NCI-H226 lung
HCT-15 colon = tested on: HCT-15 colon

CN1CCCC1c1cccnc1.O=C(O)c1ccccc1O.O=C([O-])c1ccccc1[OH2+].O=C([O-])c1ccccc1[OH2+].O=C([O-])c1ccccc1[OH2+].[Cu+2] (stereo not given)
76.1 µM: TGI (A498 renal)
inactive: GI50 (COLO 205 colon) > 100 µM | GI50 (SNB-19 CNS) 39.6 µM | GI50 (HS 578T breast) > 100 µM | GI50 (IGROV1 ovarian) 91.1 µM | GI50 (MALME-3M melanoma) > 100 µM | GI50 (SF-295 CNS) > 100 µM | GI50 (LOX IMVI melanoma) > 100 µM | GI50 (UO-31 renal) > 100 µM | GI50 (HL-60(TB) leukemia) > 100 µM | GI50 (SN12C renal) > 100 µM | GI50 (NCI-H23 lung) > 100 µM | GI50 (TK-10 renal) > 100 µM | GI50 (OVCAR-4 ovarian) 56.1 µM | GI50 (SK-OV-3 ovarian) > 100 µM | GI50 (SK-MEL-28 melanoma) > 100 µM | GI50 (NCI/ADR-RES ovarian) > 100 µM | GI50 (SW-620 colon) > 100 µM | GI50 (HCT-116 colon) > 100 µM | GI50 (BT-549 breast) > 100 µM | GI50 (EKVX NSCLC) > 100 µM | GI50 (A498 renal) 31.3 µM | GI50 (RPMI-8226 leukemia) > 100 µM | GI50 (KM12 colon) > 100 µM | GI50 (SK-MEL-5 melanoma) 33.3 µM | GI50 (SF-268 CNS) > 100 µM | GI50 (UACC-62 melanoma) > 100 µM | GI50 (CAKI-1 renal) > 100 µM | GI50 (OVCAR-3 ovarian) > 100 µM | GI50 (M14 melanoma) > 100 µM | GI50 (RXF 393 renal) > 100 µM | GI50 (MOLT-4 leukemia) > 100 µM | GI50 (HOP-62 NSCLC) > 100 µM | GI50 (CCRF-CEM leukemia) > 100 µM | GI50 (OVCAR-8 ovarian) > 100 µM | GI50 (DU-145 prostate) > 100 µM | GI50 (U251 CNS) > 100 µM | GI50 (T-47D breast) > 100 µM | GI50 (786-0 renal) > 100 µM | GI50 (MDA-N) > 100 µM | GI50 (OVCAR-5 ovarian) > 100 µM | GI50 (HT29 colon) > 100 µM | GI50 (NCI-H522 lung) > 100 µM | GI50 (SNB-75 CNS) > 100 µM | GI50 (MCF7 breast) 45.3 µM | GI50 (SK-MEL-2 melanoma) > 100 µM | GI50 (A549 NSCLC) 78.9 µM | GI50 (MDA-MB-435) > 100 µM | GI50 (MDA-MB-231 breast) > 100 µM | GI50 (UACC-257 melanoma) > 100 µM | GI50 (HOP-92 NSCLC) > 100 µM | GI50 (PC-3 prostate) > 100 µM | GI50 (ACHN renal) > 100 µM | GI50 (K-562 leukemia) > 100 µM | GI50 (NCI-H226 lung) > 100 µM | GI50 (HCT-15 colon) > 100 µM
> 100 µM: TGI (COLO 205 colon) | TGI (SNB-19 CNS) | TGI (HS 578T breast) | TGI (IGROV1 ovarian) | TGI (MALME-3M melanoma) | TGI (SF-295 CNS) | TGI (LOX IMVI melanoma) | TGI (UO-31 renal) | TGI (HL-60(TB) leukemia) | TGI (SN12C renal) | TGI (NCI-H23 lung) | TGI (TK-10 renal) | TGI (OVCAR-4 ovarian) | TGI (SK-OV-3 ovarian) | TGI (SK-MEL-28 melanoma) | TGI (NCI/ADR-RES ovarian) | TGI (SW-620 colon) | TGI (HCT-116 colon) | TGI (BT-549 breast) | TGI (EKVX NSCLC) | TGI (RPMI-8226 leukemia) | TGI (KM12 colon) | TGI (SK-MEL-5 melanoma) | TGI (SF-268 CNS) | TGI (UACC-62 melanoma) | TGI (CAKI-1 renal) | TGI (OVCAR-3 ovarian) | TGI (M14 melanoma) | TGI (RXF 393 renal) | TGI (MOLT-4 leukemia) | TGI (HOP-62 NSCLC) | TGI (CCRF-CEM leukemia) | TGI (OVCAR-8 ovarian) | TGI (DU-145 prostate) | TGI (U251 CNS) | TGI (T-47D breast) | TGI (786-0 renal) | TGI (MDA-N) | TGI (OVCAR-5 ovarian) | TGI (HT29 colon) | TGI (NCI-H522 lung) | TGI (SNB-75 CNS) | TGI (MCF7 breast) | TGI (SK-MEL-2 melanoma) | TGI (A549 NSCLC) | TGI (MDA-MB-435) | TGI (MDA-MB-231 breast) | TGI (UACC-257 melanoma) | TGI (HOP-92 NSCLC) | TGI (PC-3 prostate) | TGI (ACHN renal) | TGI (K-562 leukemia) | TGI (NCI-H226 lung) | TGI (HCT-15 colon)
